Measured values reported in PubChem BioAssay AID328 (DTP/NCI, 2004).
Values joined by “and” are separate entries in the source; they are usually repeats but may differ in a detail not shown here. Identical values can stand only once. Inconclusive results and toxic doses are left out. The calls were made as follows: active = survival T/C of 150% or more; inactive = T/C below 125% in these data.

Tested on: BDF1 mice, P388 leukemia ip, median survival T/C
Assay: NCI In Vivo Anticancer Drug Screen. Data for tumor model P388 Leukemia (intraperitoneal) in B6D2F1 (BDF1) mice
Conditions: endpoint: median survival time, higher = longer survival
Summary of the method: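 Survival ratio, drug arm over vehicle arm, in mice with a transplanted tumour.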

[1] = dose: 6.25 mg/kg/injection, schedule: Q01DX009 (ip), vehicle: saline
[2] = dose: 12.5 mg/kg/injection, schedule: Q01DX009 (ip), vehicle: saline
[3] = dose: 50.0 mg/kg/injection, schedule: Q01DX009 (ip), vehicle: saline
[4] = dose: 100.0 mg/kg/injection, schedule: Q04DX003 (ip), vehicle: Klucel (hydroxypropylcellulose) (HPC)
[5] = dose: 200.0 mg/kg/injection, schedule: Q04DX003 (ip), vehicle: Klucel (hydroxypropylcellulose) (HPC)
[6] = dose: 50.0 mg/kg/injection, schedule: Q01DX009 (ip), vehicle: saline with Tween-80
[7] = dose: 100.0 mg/kg/injection, schedule: Q01DX009 (ip), vehicle: saline with Tween-80
[8] = dose: 200.0 mg/kg/injection, schedule: Q01DX009 (ip), vehicle: saline with Tween-80
[9] = dose: 100.0 mg/kg/injection, schedule: Q04DX003 (ip), vehicle: saline
[10] = dose: 200.0 mg/kg/injection, schedule: Q04DX003 (ip), vehicle: saline
[11] = dose: 50.0 mg/kg/injection, schedule: Q01DX001 (ip), vehicle: saline with Tween-80
[12] = dose: 100.0 mg/kg/injection, schedule: Q01DX001 (ip), vehicle: saline with Tween-80
[13] = dose: 50.0 mg/kg/injection, schedule: Q04DX003 (ip), vehicle: saline with Tween-80
[14] = dose: 100.0 mg/kg/injection, schedule: Q04DX003 (ip), vehicle: saline with Tween-80
[15] = dose: 200.0 mg/kg/injection, schedule: Q04DX003 (ip), vehicle: saline with Tween-80
[16] = dose: 400.0 mg/kg/injection, schedule: Q01DX009 (ip), vehicle: saline with Tween-80
[17] = dose: 400.0 mg/kg/injection, schedule: Q04DX003 (ip), vehicle: saline with Tween-80
[18] = dose: 100.0 mg/kg/injection, schedule: Q01DX009 (ip), vehicle: saline
[19] = dose: 25.0 mg/kg/injection, schedule: Q01DX009 (ip), vehicle: saline
[20] = dose: 100.0 mg/kg/injection, schedule: Q01DX009 (ip), vehicle: Klucel (hydroxypropylcellulose) (HPC)
[21] = dose: 200.0 mg/kg/injection, schedule: Q01DX009 (ip), vehicle: Klucel (hydroxypropylcellulose) (HPC)
[22] = dose: 400.0 mg/kg/injection, schedule: Q01DX009 (ip), vehicle: Klucel (hydroxypropylcellulose) (HPC)

Measured: T/C

CC1C[N-]CC(C)C1.CC1C[N-]CC(C)C1.[Cl][Pt+2]([Cl])([Cl])[Cl] (configuration not stated)
inactive: dose: 1.56 mg/kg/injection, schedule: Q01DX009 (ip), vehicle: saline 95 % of control | dose: 3.12 mg/kg/injection, schedule: Q01DX009 (ip), vehicle: saline 114 % of control | [1] 93 % of control | [2] 114 % of control | [3] 107 % of control

Nc1ccccc1/C=C(\C(=O)O)c1cccc(Cl)c1
inactive: [4] 95 % of control | [5] 104 % of control | dose: 400.0 mg/kg/injection, schedule: Q04DX003 (ip), vehicle: Klucel (hydroxypropylcellulose) (HPC) 100 % of control

O=C(Nc1ccc(F)cc1)C(F)(F)F
inactive: [6] 106 % of control | [7] 98 % of control | [8] 105 % of control

Cn1cnc([N+](=O)[O-])c1Cl
inactive: dose: 25.0 mg/kg/injection, schedule: Q01DX009 (ip), vehicle: saline with Tween-80 101 % of control | dose: 50.0 mg/kg/injection, schedule: Q01DX005 (ip), vehicle: saline 95 % of control | [6] 92 % of control | dose: 100.0 mg/kg/injection, schedule: Q01DX005 (ip), vehicle: saline 104 % of control | [7] 106 % of control | [9] 100 % of control | [8] 101 % of control | [10] 105 % of control

CCCCCCCCCCCCCCCC[N+](C)(C)c1nc(Cl)nc(Cl)n1
inactive: dose: 7.5 mg/kg/injection, schedule: Q01DX009 (ip), vehicle: saline 110 % of control | dose: 7.5 mg/kg/injection, schedule: Q04DX003 (ip), vehicle: saline 109 % of control | dose: 15.0 mg/kg/injection, schedule: Q01DX009 (ip), vehicle: saline 105 % of control | dose: 15.0 mg/kg/injection, schedule: Q04DX003 (ip), vehicle: saline 113 % of control | dose: 30.0 mg/kg/injection, schedule: Q01DX009 (ip), vehicle: saline 105 % of control | dose: 30.0 mg/kg/injection, schedule: Q04DX003 (ip), vehicle: saline 109 % of control | dose: 60.0 mg/kg/injection, schedule: Q04DX003 (ip), vehicle: saline 118 % of control

CCOC(=O)C(CCCO)C(=O)OCC
inactive: [11] 115 % of control | [12] 100 % of control | dose: 200.0 mg/kg/injection, schedule: Q01DX001 (ip), vehicle: saline with Tween-80 110 % of control

CC(C)(C)OC(=O)N1Cc2cc3ccccc3nc2C1
inactive: [13] 100 % of control | [14] 118 % of control | [15] 109 % of control

O=C(Cl)c1ccc(N2C(=O)c3ccccc3C2=O)cc1[N+](=O)[O-]
inactive: [6] 118 % of control | [13] 96 % of control | [7] 121 % of control | [14] 102 % of control | [8] 115 % of control | [15] 100 % of control | [16] 101 % of control | [17] 105 % of control

NCCOCC(N)C(=O)O (configuration not stated)
inactive: [3] 109 % of control | [18] 105 % of control | dose: 200.0 mg/kg/injection, schedule: Q01DX009 (ip), vehicle: saline 98 % of control

CCCCC(CC)COC(=O)CC(CC(=O)OCC(CC)CCCC)C(=O)OCC(CC)CCCC (configuration not stated)
inactive: [6] 92 % of control | [7] 92 % of control | [8] 92 % of control

CCN(CC)C(=S)S
inactive: dose: 100.0 mg/kg/injection, schedule: Q01DX009 (ip), vehicle: saline sonified 104 % of control | dose: 200.0 mg/kg/injection, schedule: Q01DX009 (ip), vehicle: saline sonified 100 % of control | dose: 400.0 mg/kg/injection, schedule: Q01DX009 (ip), vehicle: saline sonified 118 % of control | dose: 400.0 mg/kg/injection, schedule: Q01DX010 (ip), vehicle: water 100 % of control

NCCNCc1c[nH]c(=O)[nH]c1=O
inactive: [6] 113 % of control | [7] 111 % of control | [8] 101 % of control

O=C(O)c1sc(C(=O)O)c(-c2ccccc2)c1-c1ccccc1
inactive: [1] 89 % of control and 101 % of control | [2] 101 % of control and 115 % of control | [19] 87 % of control and 95 % of control | [6] 100 % of control | [3] 89 % of control and 100 % of control | [7] 100 % of control | [14] 90 % of control | [8] 100 % of control | [15] 95 % of control | [17] 104 % of control

CCN(CC)CCCC(C)Nc1ncnc(N)c1[N+](=O)[O-] (configuration not stated)
inactive: [19] 120 % of control | dose: 25.0 mg/kg/injection, schedule: Q04DX003 (ip), vehicle: saline 90 % of control | [3] 120 % of control | dose: 50.0 mg/kg/injection, schedule: Q04DX003 (ip), vehicle: saline 95 % of control | [18] 90 % of control | [9] 100 % of control

C[C@]12C=CC(=O)C=C1CC[C@H]1[C@@H]3CCC(=O)O[C@@]3(C)CC(=O)[C@@]12F
inactive: [7] 100 % of control | [8] 100 % of control | [16] 100 % of control

CC[C@@H]1C[C@H]2CC3c4[nH]c5ccc(O)cc5c4CCN(C2)C31
inactive: dose: 25.0 mg/kg/injection, schedule: Q01DX001 (ip), vehicle: saline with Tween-80 106 % of control | [11] 104 % of control | [12] 108 % of control

O=C(O)CC(SC(c1ccccc1)(c1ccccc1)c1ccccc1)C(=O)O (configuration not stated)
inactive: dose: 50.0 mg/kg/injection, schedule: Q04DX003 (ip), vehicle: Klucel (hydroxypropylcellulose) (HPC) 86 % of control | [4] 86 % of control | [5] 95 % of control

O=C(O)c1ccc(-c2ccc(C(=O)O)cc2I)c(I)c1
inactive: [6] 100 % of control | [7] 96 % of control | [14] 100 % of control | [8] 96 % of control | [15] 100 % of control | [17] 95 % of control

C=C(C)[C@@H]1CC[C@]2(C)CC[C@]3(C)[C@H](CC[C@@H]4[C@@]5(C)CC[C@H](O)C(C)(C)[C@@H]5CC[C@]43C)[C@@H]12
inactive: dose: 50.0 mg/kg/injection, schedule: Q01DX009 (ip), vehicle: Klucel (hydroxypropylcellulose) (HPC) 93 % of control | [20] 101 % of control | [21] 105 % of control | [22] 97 % of control

O=c1ccccn1CC1(c2ccccc2)OCCO1
inactive: [20] 95 % of control | [21] 91 % of control | [22] 95 % of control

C[C@]12CC[C@@H]3c4ccccc4CC[C@H]3[C@@H]1CC[C@@H]2O
inactive: [14] 90 % of control | [15] 90 % of control | [17] 100 % of control

CC1C=CC(C(N)C(=O)O)O1 (configuration not stated)
inactive: [9] 100 % of control | [10] 100 % of control | dose: 400.0 mg/kg/injection, schedule: Q04DX003 (ip), vehicle: saline 95 % of control and 100 % of control
